Assay results reported in ChEMBL document CHEMBL3232981, “Isolation of 6-deoxytetrodotoxin from the pufferfish, Takifugu pardalis, and a comparison of the effects of the C-6 and C-11 hydroxy groups of tetrodotoxin on its activity” (J Nat Prod, 2014).

Columns and labels:
[1] = (§1) Inhibition of Nav in mouse Neuro-2a cells assessed as inhibition of ouabain and veratridine-induced cytotoxicity after 24 hrs by WST-8 assay; assay type: cell-based
[2] = system: Neuro-2a; test: as §1; assay type: cell-based

Row | Structure (SMILES) | EC50 [1] [µM] | inhibition [2]
1 | C[C@H]1[C@H]2O[C@@]3(O)O[C@@H]1[C@@H]1[C@@H](O)NC(=N)N[C@]1([C@@H]2O)[C@@H]3O | 0.4 | Dose-dependent effect
2 | NC1=N[C@H](O)[C@H]2[C@H]3O[C@]4(O)O[C@@H]([C@@H](O)[C@@]2(N1)[C@@H]4O)[C@]3(O)CO [TETRODOTOXIN] | 0.0021 | Dose-dependent effect
3 | C[C@]1(O)[C@@H]2O[C@]3(O)O[C@H]1[C@@H](O)[C@@]1(NC(=N)N[C@H](O)[C@@H]21)[C@@H]3O | 0.13 | Dose-dependent effect
4 | N=C1N[C@H](O)[C@H]2[C@H]3O[C@]4(O)O[C@H]([C@@H]3CO)[C@@H](O)[C@@]2(N1)[C@@H]4O | 0.0065 | Dose-dependent effect
